Earlier results as cited in patent US8530651B2, “Process for the preparation of anagrelide and analogues” (Shire LLC, priority 2008, dated 2013).
Like-named read-outs stand apart in the source and are kept apart here.

How the values were obtained:
[1] = solid
[2] = humans; radiolabeled base
[3] = monkeys; radiolabeled base

O=C1CN2Cc3c(ccc(Cl)c3Cl)N=C2N1 [anagrelide base, 6,7-dichloro-1,5-dihydroimidazo[2,1-b]quinazolin-2 (3H)-one]
aqueous solubility [1]: low aqueous solubility
absorption into blood plasma [2]: complete absorption
absorption into blood plasma [3]: complete absorption
